The text below walks through data of ChEMBL document CHEMBL1134038, “New triterpenes, myrrhanol A and myrrhanone A, from guggul-gum resins, and their potent anti-inflammatory effect on adjuvant-induced air-pouch granuloma of mice” (2001).

Holding throughout (type): functional
The subject of assay [1] is Mus musculus. Description: Inhibitory effect on inflammatory process II (migration: inflammatory cell count) at a log dose of -6mol/kg, ip relative to hydrocortisone on adjuvant-induced air-pouch granulomas of mice.
Assay [2] deals with Mus musculus. Description: Inhibitory effect on inflammatory process II (migration: inflammatory cell count) at a log dose of -5.25mol/kg, ip relative to hydrocortisone on adjuvant-induced air-pouch granulomas of mice.
In assay [3] the test system is Mus musculus. Description: Inhibitory effect on inflammatory process I (exudation: pouch fluid weight) at a log dose of -6mol/kg, ip relative to hydrocortisone on adjuvant-induced air-pouch granulomas of mice.
Assay [4] concerns Mus musculus. Nature of the assay: Weak anti-inflammatory and inflammatory effect on inflammatory process III (angiogenesis: carmine content) at a log dose of -2.2g/kg, ip, in adjuvant-induced air-pouch granuloma of mice(**).
Assay [5] deals with Mus musculus. Description: Inhibitory effect on inflammatory process IV (granuloma formation) at a log dose of -6mol/kg, ip relative to hydrocortisone on adjuvant-induced air-pouch granulomas of mice.
Assay [6] concerns Mus musculus. Nature of the assay: Inhibitory effect on inflammatory process III (angiogenesis: carmine content) at a log dose of -5.25mol/kg, ip relative to hydrocortisone on adjuvant-induced air-pouch granulomas of mice.
The subject of assay [7] is Mus musculus. Description: Weak anti-inflammatory and inflammatory effect on inflammatory process III (angiogenesis: carmine content) at a log dose of -1.5g/kg, ip, in adjuvant-induced air-pouch granuloma of mice(**).
Assay [8] concerns Mus musculus. Description: Anti-inflammatory effect on inflammatory process II (migration: inflammatory cell count) at a log dose of -1.5g/kg, ip, in adjuvant-induced air-pouch granuloma of mice(*).
Assay [9] deals with Mus musculus. Nature of the assay: Anti-inflammatory effect on inflammatory process II (migration: inflammatory cell count) at a log dose of -3g/kg, ip, in adjuvant-induced air-pouch granuloma of mice(*).
Assay [10] has as its system Mus musculus. Description: Weak anti-inflammatory and inflammatory effect on inflammatory process IV (granuloma formation) at a log dose of -1.5g/kg, ip, in adjuvant-induced air-pouch granuloma of mice(**).
Assay [11] relates to Mus musculus. Description: Inhibitory effect on inflammatory process III (angiogenesis: carmine content) at a log dose of -6mol/kg, ip relative to hydrocortisone on adjuvant-induced air-pouch granulomas of mice.
The subject of assay [12] is Mus musculus. Nature of the assay: Anti-inflammatory effect on inflammatory process IV (granuloma formation) at a log dose of -2.25g/kg, ip, in adjuvant-induced air-pouch granuloma of mice(*).
For assay [13], the species on record is Mus musculus. Nature of the assay: Inhibitory dose required against angiogenesis (carmine content) tested for antiinflammatory activity in mice(parentheses value represents 95% confidence limits). The settings on record: read-out: ID50 (the source's name).
Assay [14] relates to Mus musculus. Nature of the assay: Inhibitory effect on inflammatory process IV (granuloma formation) at a log dose of -5.25mol/kg, ip relative to hydrocortisone on adjuvant-induced air-pouch granulomas of mice.
The subject of assay [15] is Mus musculus. Nature of the assay: Weak anti-inflammatory and inflammatory effect on inflammatory process I (exudation: pouch fluid weight) at a log dose of -3g/kg, ip, in adjuvant-induced air-pouch granuloma of mice(**).
Assay [16] has as its system Mus musculus. Description: Anti-inflammatory effect on inflammatory process I (exudation: pouch fluid weight) at a log dose of -2.25g/kg, ip, in adjuvant-induced air-pouch granuloma of mice(*).
Assay [17] deals with Mus musculus. Nature of the assay: Inhibitory effect on inflammatory process I (exudation: pouch fluid weight) at a log dose of -5.6mol/kg, ip relative to hydrocortisone on adjuvant-induced air-pouch granulomas of mice.
Assay [18] relates to Mus musculus. Nature of the assay: Anti-inflammatory effect on inflammatory process III (angiogenesis: carmine content) at a log dose of -3g/kg, ip, in adjuvant-induced air-pouch granuloma of mice(*).
Assay [19] relates to Mus musculus. Description: Anti-inflammatory effect on inflammatory process I (exudation: pouch fluid weight) at a log dose of -3g/kg, ip, in adjuvant-induced air-pouch granuloma of mice(*).
The test system of assay [20] is Mus musculus. Nature of the assay: Weak anti-inflammatory and inflammatory effect on inflammatory process I (exudation: pouch fluid weight) at a log dose of -2.2g/kg, ip, in adjuvant-induced air-pouch granuloma of mice(**).
The test system of assay [21] is Mus musculus. Nature of the assay: Inhibitory effect on inflammatory process I (exudation: pouch fluid weight) at a log dose of -5.25mol/kg, ip relative to hydrocortisone on adjuvant-induced air-pouch granulomas of mice.
Assay [22] has as its system Mus musculus. Nature of the assay: Weak anti-inflammatory and inflammatory effect on inflammatory process IV (granuloma formation) at a log dose of -2.2g/kg, ip, in adjuvant-induced air-pouch granuloma of mice(**).
For assay [23], the system named is Mus musculus. Description: Weak anti-inflammatory and inflammatory effect on inflammatory process III (angiogenesis: carmine content) at a log dose of -3g/kg, ip, in adjuvant-induced air-pouch granuloma of mice(**).
For assay [24], the system named is Mus musculus. Description: Weak anti-inflammatory and inflammatory effect on inflammatory process I (exudation: pouch fluid weight) at a log dose of -1.5g/kg, ip, in adjuvant-induced air-pouch granuloma of mice(**).
Assay [25] concerns Mus musculus. Description: Weak anti-inflammatory and inflammatory effect on inflammatory process IV (granuloma formation) at a log dose of -3g/kg, ip, in adjuvant-induced air-pouch granuloma of mice(**).
For assay [26], the system named is Mus musculus. Nature of the assay: Inhibitory effect on inflammatory process IV (granuloma formation) at a log dose of -5.6mol/kg, ip relative to hydrocortisone on adjuvant-induced air-pouch granulomas of mice.
Assay [27] relates to Mus musculus. Nature of the assay: Anti-inflammatory effect on inflammatory process III (angiogenesis: carmine content) at a log dose of -2.25g/kg, ip, in adjuvant-induced air-pouch granuloma of mice(*).
In assay [28] the test system is Mus musculus. Nature of the assay: Anti-inflammatory effect on inflammatory process IV (granuloma formation) at a log dose of -3g/kg, ip, in adjuvant-induced air-pouch granuloma of mice(*).
The species named for assay [29] is Mus musculus. Description: Inhibitory dose required against exudation (pouch fluid weight) tested for antiinflammatory activity in mice(parentheses value represents 95% confidence limits). Particulars: read-out: ID50 (the source's name).
Assay [30] has as its system Mus musculus. Nature of the assay: Anti-inflammatory effect on inflammatory process I (exudation: pouch fluid weight) at a log dose of -1.5g/kg, ip, in adjuvant-induced air-pouch granuloma of mice(*).
In assay [31] the test system is Mus musculus. Description: Anti-inflammatory effect on inflammatory process IV (granuloma formation) at a log dose of -1.5g/kg, ip, in adjuvant-induced air-pouch granuloma of mice(*).
Assay [32] deals with Mus musculus. Description: Inhibitory effect on inflammatory process II (migration: inflammatory cell count) at a log dose of -5.6mol/kg, ip relative to hydrocortisone on adjuvant-induced air-pouch granulomas of mice.
Assay [33] deals with Mus musculus. Nature of the assay: Weak anti-inflammatory and inflammatory effect on inflammatory process II (migration: inflammatory cell count) at a log dose of -2.2g/kg, ip, in adjuvant-induced air-pouch granuloma of mice(**).
Assay [34] concerns Mus musculus. Nature of the assay: Anti-inflammatory effect on inflammatory process II (migration: inflammatory cell count) at a log dose of -2.25g/kg, ip, in adjuvant-induced air-pouch granuloma of mice(*).
Assay [35] is filed under the species Mus musculus. Description: Inhibitory dose required against granuloma formation tested for antiinflammatory activity in mice(parentheses value represents 95% confidence limits). The settings on record: read-out: ID50 (the source's name).
For assay [36], the system named is Mus musculus. Description: Anti-inflammatory effect on inflammatory process III (angiogenesis: carmine content) at a log dose of -1.5g/kg, ip, in adjuvant-induced air-pouch granuloma of mice(*).
For assay [37], the system named is Mus musculus. Description: Weak anti-inflammatory and inflammatory effect on inflammatory process II (migration: inflammatory cell count) at a log dose of -3g/kg, ip, in adjuvant-induced air-pouch granuloma of mice(**).
For assay [38], the system named is Mus musculus. Description: Weak anti-inflammatory and inflammatory effect on inflammatory process II (migration: inflammatory cell count) at a log dose of -1.5g/kg, ip, in adjuvant-induced air-pouch granuloma of mice(**).
Assay [39] deals with Mus musculus. Description: Inhibitory effect on inflammatory process III (angiogenesis: carmine content) at a log dose of -5.6mol/kg, ip relative to hydrocortisone on adjuvant-induced air-pouch granulomas of mice.
For assay [40], the species on record is Mus musculus. Nature of the assay: Inhibitory dose required against migration (inflammatory cell count) tested for antiinflammatory activity in mice(parentheses value represents 95% confidence limits). The settings on record: read-out: ID50 (the source's name).

Each structure is given as a SMILES string. Some results are limits rather than exact numbers.

Take `C/C(=C\CC/C(C)=C/CC/C(C)=C/CC[C@@H]1[C@@]2(C)CC[C@H](O)C(C)(C)C2CC[C@@]1(C)O)CO` (stereo partly specified): the Relative amount in the assay on Mus musculus [1] is reported as 105%; in the assay with Mus musculus [2] it was 115%; in the assay on Mus musculus [3], 70%; in the assay with Mus musculus [4], 65%; in the assay with Mus musculus [5], 85%; with Mus musculus [6], less than 30%. In addition, the Relative amount with Mus musculus [7] is 50%; in the assay on Mus musculus [8], 60%; in the assay with Mus musculus [9], 80%; in the assay with Mus musculus [10], 60%; in the assay with Mus musculus [11], 87%; in the assay with Mus musculus [12] it was less than 65%. Besides, the Relative amount is less than 50% in the assay on Mus musculus [14]; 100% in the assay on Mus musculus [15]; 35% in the assay with Mus musculus [16]; less than 20% in the assay on Mus musculus [17]; less than 63% in the assay on Mus musculus [18]; 45% with Mus musculus [19]. In addition, the Relative amount is 27% with Mus musculus [20]; less than 5% with Mus musculus [21]; 62% in the assay on Mus musculus [22]; 75% with Mus musculus [23]; 25% with Mus musculus [24]; 80% with Mus musculus [25]. Further, the Relative amount with Mus musculus [26] is less than 75%; in the assay on Mus musculus [27], less than 52%; in the assay with Mus musculus [28], less than 70%; with Mus musculus [30] it was less than 15%; with Mus musculus [31], less than 55%; in the assay on Mus musculus [32], 90%. Also, the Relative amount was 70% with Mus musculus [33]; 65% in the assay with Mus musculus [34]; less than 50% in the assay with Mus musculus [36]; 100% with Mus musculus [37]; 65% with Mus musculus [38]; less than 47% in the assay on Mus musculus [39]. Moreover, the ED50 in the assay listed under Mus musculus [13] was 2.8 µmol/kg; in the assay listed under Mus musculus [29] it was 1.75 µmol/kg; in the assay listed under Mus musculus [35] it was 5.83 µmol/kg.
Regarding `C/C(=C\CC/C(C)=C/CC/C(C)=C/CC[C@@H]1[C@@]2(C)CCC(=O)C(C)(C)C2CC[C@@]1(C)O)CO` (stereo partly specified), the Relative amount in the assay with Mus musculus [1] turned out to be 75%; in the assay on Mus musculus [3], 90%; with Mus musculus [4], 185%; with Mus musculus [5] it was 75%; in the assay on Mus musculus [7], 180%; in the assay with Mus musculus [8], 70%. Besides, the Relative amount in the assay on Mus musculus [9] was 95%; in the assay on Mus musculus [10], 100%; in the assay on Mus musculus [11], 105%; in the assay with Mus musculus [12], less than 68%; in the assay with Mus musculus [15], 70%; in the assay on Mus musculus [16], 65%. Also, the Relative amount in the assay with Mus musculus [18] was found to be 83%; in the assay with Mus musculus [19], 75%; in the assay on Mus musculus [20], 225%; in the assay with Mus musculus [22] it was 100%; with Mus musculus [23], 90%; in the assay with Mus musculus [24], 250%. The Relative amount was 65% in the assay with Mus musculus [25]; 83% with Mus musculus [27]; 80% in the assay on Mus musculus [28]; 60% with Mus musculus [30]; less than 55% in the assay with Mus musculus [31]; 170% with Mus musculus [33]. Besides, the Relative amount in the assay with Mus musculus [34] was 85%; in the assay with Mus musculus [36] it was less than 50%; in the assay on Mus musculus [37], 85%; in the assay with Mus musculus [38], 175%.
For the compound `C[C@]12CCC(=O)C=C1CCC1[C@@H]2[C@@H](O)C[C@@]2(C)[C@H]1CC[C@]2(O)C(=O)CO` (single isomer, unassigned) [HYDROCORTISONE], the ED50 in the assay filed under Mus musculus [13] was found to be 22.1 µmol/kg; in the assay listed under Mus musculus [40], 11.7 µmol/kg; in the assay listed under Mus musculus [29], 6.31 µmol/kg; in the assay listed under Mus musculus [35], 29.2 µmol/kg.
